Experimental data from patent US20130064812A1, “COMBINATION THERAPIES FOR HEMATOLOGIC MALIGNANCIES” (Gilead Calistoga LLC, priority 2011, published 2013).

Experiments:
[1] = test system: over 350 protein kinases; experiment: Ambit KINOMEscan kinome-wide protein kinase screen; assay type: binding; details: 10 μM, over 350 protein kinases (over 300)
Text: Examples of some kinases in the screen are shown below in Table 3.

[2] = test system: LB cells; experiment: MM cell growth with IGF-1 or IL-6 (MTT); assay type: cell-based, human; details: 0.625 μM-[…], 48 h, with IL-6 or IGF-1
Protocol: LB cells ([…]) were cultured for 48 h with control media; with the compound of formula I, in the presence or absence of either IL-6 or IGF-1. […] Chemicon International) dye absorbance. Cells were pulsed with 10 μL of 5 mg/mL MTT to each well for the last 4 hours of 48-hour cultures, followed by 100 μL isopropanol containing 0.04 N HCl.

[3] = test system: T47D and HS-578T cell lines; experiment: Proliferation of breast cancer cell lines (AlamarBlue); assay type: cell-based; details: 48 hrs and 72 hrs
Protocol: T47D and HS-578T cell lines were grown in the presence of serum plus the indicated concentrations of the compound of formula I. Proliferation was measured in triplicate wells by AlamarBlue® assay (Invitrogen) 96-well plates.

[4] = test system: HS-578T, T47D, and MCF7 cells; experiment: Apoptosis in breast cancer cell lines (Annexin V-FITC/7AAD); assay type: cell-based; details: 24 h
Protocol: HS-578T, T47D, and MCF7 cells were treated with the compound of formula I or corresponding DMSO concentrations for 24 h. The percentage of apoptotic cells was determined by Annexin V-FITC/7AAD staining. Bottom left, viable cells ([…]); bottom right, early apoptotic cells (Annexin V-FITC positive only); top right, mid-late apoptotic cells (Annexin V-FITC/7AAD double-positive); and top left, late apoptotic/necrotic (7AAD positive only). Percentages of cells in each quadrant are indicated except for the bottom left quadrant (viable cells).

[5] = test system: LB and INA-6 cells; experiment: MM cell growth with IL-6 or IGF-1 ([3H]-thymidine); assay type: cell-based, human; details: 5.0 or 10 μM; IL-6 1 and 10 ng/ml, IGF-1 10 and 100 ng/mL
Protocol: DNA synthesis was determined by measuring [3H]-thymidine incorporation during the last 8 h of 72 h cultures. Data represent means (±SD) of triplicate cultures.

[6] = test system: previously treated B-cell malignancies (iNHL, CLL); experiment: Clinical study, combination with rituximab or bendamustine, 49 patients (Example 42); details: human, in vivo
Text: 49 patients were enrolled in the study, including 27 with iNHL and 22 with CLL. At the baseline, patients had adverse prognostic characteristics, including older age, bulky adenopathy, and refractory disease. All patients had received ≧1 prior treatment regimen and some had received as many 9 prior regimens. Prior treatment included rituximab, alkylating agents and/or fludarabine; the majority of patients with iNHL had been treated with prior anthracycline-containing therapy. Follow-up was early in many patients, with durations of therapy ranging from 1 to 12 cycles.
All patients received the compound of formula I, either 100 mg orally twice per day (BID) or 150 mg orally twice per day (BID) for as long as the patient was benefiting. Patients also received either rituximab 375 mg/m^2 administered weekly for 8 weeks, starting on Day 1 of Cycle 1, or bendamustine 90 mg/m^2 administered on Days 1 and 2 of each cycle for 6 cycles. Tumor response was evaluated according to standard criteria.

[7] = test system: CLL cells; experiment: BH3 profiling (mitochondrial depolarization) of CLL cells; assay type: cell-based, human; details: 24 hours; p=0.075
Protocol: CLL patient peripheral blood, bone marrow, and lymph node samples were analyzed by either the plate-based fluorimetry or FACS method. Briefly, PBMCs from CLL patients were made into single cell suspensions and gently permeabilized using digitonin (0.002%). For the fluorimtery-based method, 100 μM JC-1 (Invitrogen) was added at this time and cells were then loaded onto a 384-well plate, with individual wells containing individual BH3-only peptides. The JC1-BH3 assays were then conducted in triplicate on a Tecan Safire 2 with […] and Em 590+/−20 nm with a three-hour time course. For the FACS-based method, single cell suspensions from CLL patient PBMCs were stained using human Fc Block (BD Pharmingen) followed by anti-CD19-V450 (BD Pharmingen) and anti-CXCR4-APC (BD Pharmingen). […] JC-1 was measured from the 488-nm laser using a 530/30-nm filter (FITC) and a 585/42-nm filter (PE), and the degree of mitochondrial depolarization was calculated using the surrogate of the change in the median of PE signal. The mitochondrial depolarization reported in response to each BH3 peptide is normalized relative to the median percentage change in PE fluorescence of the JC-1 dye with a negative control, dimethyl sulfoxide (DMSO) (0%) and a positive control, the mitochondrial uncoupling agent carbonyl cyanide 4-(trifluoromethoxy)-phenylhydrazone (FCCP) (100%). […]

[8] = test system: AKT (ser473), GSK3β (ser9); experiment: AKT and GSK3β phosphorylation in CD19+ CLL cells with lenalidomide (immunoblot); details: 0.5 μM lenalidomide and/or 1 or 10 μM compound, 48 hours
Protocol: Immunoblots were performed.
AKT phosphorylation at ser473 was assessed by immunoblot.
GSK3β phosphorylation at ser9 was assessed by immunoblot. Results are shown from one of four experiments.
CD19+ cells from CLL patients (N=3) were transfected with siRNA targeted to PI3K-δ, PI3K-γ or a nonsense and then incubated with or without 0.5 μM lenalidomide for 48 hours. AKT phosphorylation at ser473 was assessed by immunoblot. Results are shown from one of three experiments.

[9] = listed as compound of formula I

For `CC[C@H](Nc1ncnc2[nH]cnc12)c1nc2cccc(F)c2c(=O)n1-c1ccccc1` [Compound I, 5-fluoro-3-phenyl-2-[1-(9H-purin-6-ylamino)-propyl]-3H-quinazolin-4-one], the “activity in kinome-wide protein kinase screen” value [1] was “failed to detect any activity”, the “activity in kinome-wide protein kinase screen” value [1, 9] was “little activity” and the MM cell growth [2] was “inhibits MM cell growth even in the presence of cell growth stimulatory cytokines”. The “proliferation of breast cancer cell lines” value [3] was “reduces cellular proliferation of two breast cancer cell lines”, the “proliferation of breast cancer cell lines” value [3, 9] was “inhibits proliferation of breast cancer cell lines” and the “apoptosis in breast cancer cell lines” value [4] was “cytotoxicity to three different breast cancer cell lines”. For the same molecule, the “apoptosis in breast cancer cell lines” value [4, 9] was “induces apoptosis in breast cancer cell lines”, the “growth inhibition in the presence of IL-6 or IGF-1” value [5] was “Neither IL-6 nor IGF-1 protected against the growth inhibition” and the dose-limiting toxicities [6] was “No dose-limiting toxicities related to the compound of formula I were observed”. The “mitochondrial priming of stroma-exposed CLL cells” value [7] was “increased mitochondrial priming”, the “AKT activation / phosphorylation (ser473) with lenalidomide” value [8] was “resulted in prevention of PI3K activity” and the “GSK3β phosphorylation (ser9)” value ([8]; N=4) was “preventable by co-treatment with the compound of formula I”.
